The first test addresses T1, glutathione S-transferase (GST)-fused full-length human Syk protein (Homo sapiens, UniProt P43405).
T1 construct: (GST)-fused full-length human Syk protein; GST (glutathione S-transferase); purchased Carna Biosciences
As to the kind of experiment: Syk enzyme assay. Format: biochemical. The settings on record: Syk enzyme assay, Test Example 1; read-out: IC50 of Syk-inhibitory activity. The method, boiled down: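 IC50 values come from a time-resolved FRET readout (615 and 665 nm) of substrate phosphorylation, measured after an EDTA stop and 1 h antibody binding. The kinase reaction ran 40 min at room temperature with 27 μM ATP and 0.4 μM biotin-peptide, following a 15 min compound preincubation with baculovirus-made GST-full-length human Syk.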
As for `COc1cccc(-c2cncc(Nc3nc(N[C@@H]4CCCC[C@@H]4N)c(F)cc3C(N)=O)c2)n1` (relative stereo) [Example 004-230, 6-((cis-2-aminocyclohexyl)amino)-5-fluoro-2-((6-methoxy-[2,3′-bipyridin]-5′-yl)amino)nicotinamide], the IC50 was in the range of 10 to 50 nM.
Still for that read-out and setting: the figure for `COc1ccc(-c2cncc(Nc3nc(N[C@@H]4CCCC[C@@H]4N)c(F)cc3C(N)=O)c2)cn1` (relative stereo) [Example 004-231, 6-((cis-2-aminocyclohexyl)amino)-5-fluoro-2-((6′-methoxy-[3,3′-bipyridin]-5-yl)amino)nicotinamide] is 10 to 50 nM; for `COc1cc(-c2cncc(Nc3nc(N[C@@H]4CCCC[C@@H]4N)c(F)cc3C(N)=O)c2)ccn1` (relative stereo) [Example 004-232, 6-((cis-2-aminocyclohexyl)amino)-5-fluoro-2-((2′-methoxy-[3,4′-bipyridine]-5-yl)amino)nicotinamide] it is less than 10 nM.
On the same count and under the same terms, in the case of `Cn1ccc2c(Nc3nc(N[C@@H]4CCCC[C@@H]4N)c(F)cc3C(N)=O)cccc21` (relative stereo) [Example 006-059, 6-(cis-2-aminocyclohexylamino)-5-fluoro-2-((1-methyl-1H-indol-4-yl)amino)nicotinamide] it was less than 10 nM.
Same read-out and setting: in the case of `Cn1cc2cccc(Nc3nc(N[C@@H]4CCCC[C@@H]4N)c(F)cc3C(N)=O)c2n1` (relative stereo) [Example 006-074, 6-(cis-2-aminocyclohexylamino)-5-fluoro-2-((2-methyl-2H-indazol-7-yl)amino)nicotinamide] it was 100 to 1000 nM; in that of `CN1CCc2ccc(Nc3nc(N[C@@H]4CCCC[C@@H]4N)c(F)cc3C(N)=O)cc2C1` (relative stereo) [Example 006-077, 6-(cis-2-aminocyclohexylamino)-5-fluoro-2-((2-methyl-1,2,3,4-tetrahydroisoquinolin-7-yl)amino)nicotinamide], 10 to 50 nM; in that of `NC(=O)c1cc(F)c(N[C@@H]2CCCC[C@@H]2N)nc1Nc1ccc2cn[nH]c2c1` (relative stereo) [Example 006-086, 6-(cis-2-aminocyclohexylamino)-5-fluoro-2-((1H-indazol-6-yl)amino)nicotinamide], less than 10 nM.
Take `Cn1ccc2cc(-c3cncc(Nc4nc(N[C@@H]5CCCC[C@@H]5N)c(F)cc4C(N)=O)c3)ccc21` (relative stereo) [Example 006-091, 6-((cis-2-aminocyclohexyl)amino)-5-fluoro-2-((5-(1-methyl-1H-indol-5-yl)pyridin-3-yl)amino)nicotinamide]: the IC50 was 10 to 50 nM.
On the same count and under the same terms, in the case of `NC(=O)c1cc(F)c(N[C@@H]2CCCC[C@@H]2N)nc1Nc1cncc(-n2ccnc2)c1` (relative stereo) [Example 006-127, 2-((5-(1H-imidazol-1-yl)pyridin-3-yl)amino)-6-((cis-2-aminocyclohexyl)amino)-5-fluoronicotinamide] it was 10 to 50 nM; in that of `NC(=O)c1cc(F)c(N[C@@H]2CCCC[C@@H]2N)nc1Nc1ccnc(-c2cc[nH]c2)c1` (relative stereo) [Example 006-131, 2-((2-(1H-pyrrol-3-yl)pyridin-4-yl)amino)-6-((cis-2-aminocyclohexyl)amino)-5-fluoronicotinamide], less than 10 nM; in that of `Cc1ncc(Nc2nc(N[C@@H]3CCCC[C@@H]3N)c(F)cc2C(N)=O)cc1-n1ccnn1` (relative stereo) [Example 006-152, 6-((cis-2-aminocyclohexyl)amino)-5-fluoro-2-((6-methyl-5-(1H-1,2,3-triazol-1-yl)pyridin-3-yl)amino)nicotinamide], 10 to 50 nM.
Turning to `NC(=O)c1cc(F)c(N[C@@H]2CCCC[C@@H]2N)nc1Nc1ccc(Nc2ccccc2)nc1` (relative stereo) [Example 006-164, 6-((cis-2-aminocyclohexyl)amino)-5-fluoro-2-((6-(phenylamino)pyridin-3-yl)amino)nicotinamide], the 50% inhibitory concentration (IC50) was 10 to 50 nM.
For `Cn1cc(Nc2nc(N[C@@H]3CCCC[C@@H]3N)c(F)cc2C(N)=O)cc(-n2ccnn2)c1=O` (relative stereo) [Example 006-428, 6-((cis-2-aminocyclohexyl)amino)-5-fluoro-2-((1-methyl-6-oxo-5-(1H-1,2,3-triazol-1-yl)-1,6-dihydropyridin-3-yl)amino)nicotinamide], the IC50 was 50 to 100 nM.
Still for that read-out and setting: the figure for `NC(=O)c1cc(F)c(N[C@@H]2CCCC[C@@H]2N)nc1Nc1cncc(NC(=O)c2ccc(S(=O)(=O)F)cc2)c1` (relative stereo) [Example 027-017, 4-((5-(6-(cis-2-aminocyclohexylamino)-3-carbamoyl-5-fluoropyridin-2-yl)aminopyridin-3-yl)carbamoyl)benzene-1-sulfonyl fluoride] is 10 to 50 nM.
The same measure, in the same setting: the figure for `NC(=O)c1cc(F)c(N[C@@H]2CCCC[C@@H]2N)nc1Nc1cncc(NC(=O)c2ccno2)c1` (relative stereo) [Example 027-036, N-(5-(6-(cis-2-aminocyclohexylamino)-3-carbamoyl-5-fluoropyridin-2-yl)aminopyridin-3-yl)isoxazole-5-carboxamide] is less than 10 nM; for `Cn1nnc2cc(C(=O)Nc3cncc(Nc4nc(N[C@@H]5CCCC[C@@H]5N)c(F)cc4C(N)=O)c3)ccc21` (relative stereo) [Example 027-042, N-(5-(6-(cis-2-aminocyclohexylamino)-3-carbamoyl-5-fluoropyridin-2-yl)aminopyridin-3-yl)-1-methyl-1H-benzo[d][1,2,3]triazol-5-carboxamide] it is less than 10 nM.
The same measure, in the same setting: the figure for `NC(=O)c1cc(F)c(N[C@@H]2CCCC[C@@H]2N)nc1Nc1ccc2[nH]c(C(=O)N3CCOCC3)cc2c1` (relative stereo) [Example 029-017, 6-(cis-2-aminocyclohexylamino)-5-fluoro-2-((2-(morpholine-4-carbonyl)-1H-indol-5-yl)amino)nicotinamide] is less than 10 nM.
As for `NC(=O)c1cc(F)c(N[C@@H]2CCCC[C@@H]2N)nc1Nc1ccc2[nH]c(C(=O)NCc3ccccc3)cc2c1` (relative stereo) [Example 029-018, 5-((6-(cis-2-aminocyclohexylamino)-3-carbamoyl-5-fluoropyridin-2-yl)amino)-N-benzyl-1H-indole-2-carboxamide], the IC50 is less than 10 nM.
Still for that read-out and setting: in the case of `NC(=O)c1cc(F)c(N[C@@H]2CCCC[C@@H]2N)nc1Nc1ccc2[nH]c(C(=O)NCCN3CCOCC3)cc2c1` (relative stereo) [Example 029-019, 5-((6-(cis-2-aminocyclohexylamino)-3-carbamoyl-5-fluoropyridin-2-yl)amino)-N-(2-morpholinoethyl)-1H-indole-2-carboxamide] it was less than 10 nM; in that of `CS(=O)(=O)Nc1cccc2cc(Nc3nc(N[C@@H]4CCCC[C@@H]4N)c(F)cc3C(N)=O)cnc12` (relative stereo) [Example 41-2, 6-(cis-2-aminocyclohexylamino)-5-fluoro-2-((8-(methylsulphonamide)quinolin-3-yl)amino)nicotinamide], less than 10 nM.
With `NC(=O)c1cc(F)c(N[C@@H]2CCCC[C@@H]2N)nc1Nc1cnc2c(NS(=O)(=O)CCl)cccc2c1` (relative stereo) [Example 41-3, 6-(cis-2-aminocyclohexylamino)-2-((8-(2-chloromethylsulphonamide)quinolin-3-yl)amino)-5-fluoronicotinamide], the concentration for half-maximal inhibition (IC50) lay within 10 to 50 nM.
Regarding `COc1ccc(S(=O)(=O)Nc2cccc3cc(Nc4nc(N[C@@H]5CCCC[C@@H]5N)c(F)cc4C(N)=O)cnc23)cc1` (relative stereo) [Example 41-5, 6-(cis-2-aminocyclohexylamino)-5-fluoro-2-((8-(4-methoxyphenylsulphonamide)quinolin-3-yl)amino)nicotinamide], the concentration for half-maximal inhibition (IC50) lay in the range of 50 to 100 nM.

Still in this test, the particulars now being: read-out: Syk-inhibitory activity (IC50).
On to `COc1ccc(Nc2nc(N[C@@H]3CCCC[C@@H]3N)c(F)cc2C(N)=O)c2cccnc12` (relative stereo) [Example 6-67, 6-(cis-2-aminocyclohexylamino)-5-fluoro-2-((8-methoxyquinolin-5-yl)amino)nicotinamide], for which the 50% inhibitory concentration (IC50) was not above 1000 nM.
In the case of `NC(=O)c1cc(F)c(N[C@@H]2CCCC[C@@H]2N)nc1Nc1cccc2nsnc12` (relative stereo) [Example 6-68, 6-(cis-2-aminocyclohexylamino)-2-(benzo[c][1,2,5]thiadiazol-4-ylamino)-5-fluoronicotinamide], the IC50 is not above 1000 nM.
Turning to `NC(=O)c1cc(F)c(N[C@@H]2CCCC[C@@H]2N)nc1Nc1cncc(NC(=O)c2ccccc2)c1` (relative stereo) [Example 26, 6-(cis-2-aminocyclohexylamino)-2-(5-benzoylaminopyridin-3-ylamino)-5-fluoronicotinamide], the IC50 was not above 1000 nM.
Still for that read-out and setting: in the case of `NC(=O)c1cncc(Nc2nc(N[C@@H]3CCCC[C@@H]3N)c(F)cc2C(N)=O)c1` (relative stereo) [Example 28, 2-(5-aminocarbonylpyridin-3-ylamino)-6-(cis-2-aminocyclohexylamino)-5-fluoronicotinamide] it was not above 1000 nM.
Same read-out and setting: in the case of `NC(=O)c1cc(F)c(N[C@@H]2CCCC[C@@H]2N)nc1Nc1cncc(C(=O)O)c1` (relative stereo) [Example 29-1, 5-((3-aminocarbonyl-6-(cis-2-aminocyclohexylamino)-5-fluoropyridin-2-yl)amino)nicotinic acid] it was not above 1000 nM.
On to `NC(=O)c1cc(Nc2nc(N[C@@H]3CCCC[C@@H]3N)c(F)cc2C(N)=O)ccn1` (relative stereo) [Example 29-12, 4-((3-aminocarbonyl-6-(cis-2-aminocyclohexylamino)-5-fluoropyridin-2-yl)amino)pyridin-2-carboxamide], for which the IC50 is not above 1000 nM.
For `CNC(=O)c1cc(Nc2nc(N[C@@H]3CCCC[C@@H]3N)c(F)cc2C(N)=O)ccn1` (relative stereo) [Example 29-13, 4-((3-aminocarbonyl-6-(cis-2-aminocyclohexylamino)-5-fluoropyridin-2-yl)amino)-N-methylpyridin-2-carboxamide], the IC50 is not above 1000 nM.

A word on the IC50: it is the concentration at which inhibition is half-maximal.

For the origin of these results see patent US8895585B2, “Nicotinamide derivative or salt thereof” (FUJIFILM Corporation, priority 2010, dated 2014).
